Legend:
[1] = Half life in human plasma; format: ADME, cell-free
[2] = Half life in human blood; format: ADME, tissue-based
[3] = Half life of compound in human plasma; format: ADME, cell-free
[4] = Half life of compound in PBS buffer at pH 7.4; format: physicochemical
[5] = Half life of compound in PBS buffer at pH 7.4 at 50 uM by HPLC analysis; format: physicochemical
[6] = Half life in human plasma at 10 uM; format: ADME, cell-free
[7] = Half life in human plasma measured after 2 days
[8] = Half life in human liver microsomes at 1 uM measured up to 30 mins by LC-MS/MS analysis; format: ADME, Microsome
[9] = Half life in human plasma by LC-MS/MS analysis; format: ADME, cell-free

With `CC(=O)Oc1ccccc1C(=O)OC[S+](C)[O-]` (centres undefined) the half-life [1] was 14 min.

`CC(=O)Oc1ccccc1C(=O)O[C@@H]1CO[C@H]2[C@@H]1OC[C@@H]2OC(=O)c1ccccc1O` showed a half-life [2] of 1 min.

For `CC(=O)Oc1ccccc1C(=O)O[C@H]1CO[C@H]2[C@@H]1OC[C@H]2OC(=O)c1ccccc1OC(C)=O`, the half-life [3] was 1 min.

`COc1ccccc1COC1(C)OC(=O)c2ccccc2O1` (centres undefined) gave a half-life [4] of 26.7 min.

Work on `CC(=O)Oc1ccccc1C(=O)OCOC(=O)c1ccc(OCCCO[N+](=O)[O-])c(OC(=O)CCN)c1` yielded a half-life at 50 µM [5] of 57 min and a half-life at 10 µM [6] of under 1 min.

Work on `CC(=O)Oc1ccccc1C(=O)Oc1ccccc1C=O` yielded a half-life at 48 h [7] of 15 min.

`CCOP(=O)(OCC)OCC(COC(=O)c1ccccc1OC(C)=O)OP(=O)(OCC)OCC` (centres undefined) showed a half-life at 1 µM [8] of 28 min.

Compound `CC(=O)Oc1ccccc1C(=O)O[C@H]1CO[C@H]2[C@@H]1OC[C@H]2O[N+](=O)[O-]` has a t1/2 [9] of 0.183 min.

From ChEMBL document CHEMBL5233234, “True or false? Challenges and recent highlights in the development of aspirin prodrugs” (Eur J Med Chem, 2020)
